The target in one test is RSK1 (Homo sapiens, UniProt Q15418). Put plainly: Kinase profiling RSK1. In kind it is biochemical. Conditions: read-out: residual kinase activity, RSK1. The source says:
(§1) Any value less that 25 is considered to be highly significant inhibition.

The target in another test is JNK1 (Homo sapiens, UniProt P45983). Put plainly: Kinase profiling JNK1. In kind it is biochemical. The following applies: read-out: residual kinase activity, JNK1.
Excerpt: as §1

In another test the target is HER4 (Homo sapiens, UniProt Q15303). Put plainly: Kinase profiling HER4. It is filed as biochemical. The following applies: read-out: residual kinase activity, HER4.
Sequence of HER4 (Q15303 26-1308, species assumed): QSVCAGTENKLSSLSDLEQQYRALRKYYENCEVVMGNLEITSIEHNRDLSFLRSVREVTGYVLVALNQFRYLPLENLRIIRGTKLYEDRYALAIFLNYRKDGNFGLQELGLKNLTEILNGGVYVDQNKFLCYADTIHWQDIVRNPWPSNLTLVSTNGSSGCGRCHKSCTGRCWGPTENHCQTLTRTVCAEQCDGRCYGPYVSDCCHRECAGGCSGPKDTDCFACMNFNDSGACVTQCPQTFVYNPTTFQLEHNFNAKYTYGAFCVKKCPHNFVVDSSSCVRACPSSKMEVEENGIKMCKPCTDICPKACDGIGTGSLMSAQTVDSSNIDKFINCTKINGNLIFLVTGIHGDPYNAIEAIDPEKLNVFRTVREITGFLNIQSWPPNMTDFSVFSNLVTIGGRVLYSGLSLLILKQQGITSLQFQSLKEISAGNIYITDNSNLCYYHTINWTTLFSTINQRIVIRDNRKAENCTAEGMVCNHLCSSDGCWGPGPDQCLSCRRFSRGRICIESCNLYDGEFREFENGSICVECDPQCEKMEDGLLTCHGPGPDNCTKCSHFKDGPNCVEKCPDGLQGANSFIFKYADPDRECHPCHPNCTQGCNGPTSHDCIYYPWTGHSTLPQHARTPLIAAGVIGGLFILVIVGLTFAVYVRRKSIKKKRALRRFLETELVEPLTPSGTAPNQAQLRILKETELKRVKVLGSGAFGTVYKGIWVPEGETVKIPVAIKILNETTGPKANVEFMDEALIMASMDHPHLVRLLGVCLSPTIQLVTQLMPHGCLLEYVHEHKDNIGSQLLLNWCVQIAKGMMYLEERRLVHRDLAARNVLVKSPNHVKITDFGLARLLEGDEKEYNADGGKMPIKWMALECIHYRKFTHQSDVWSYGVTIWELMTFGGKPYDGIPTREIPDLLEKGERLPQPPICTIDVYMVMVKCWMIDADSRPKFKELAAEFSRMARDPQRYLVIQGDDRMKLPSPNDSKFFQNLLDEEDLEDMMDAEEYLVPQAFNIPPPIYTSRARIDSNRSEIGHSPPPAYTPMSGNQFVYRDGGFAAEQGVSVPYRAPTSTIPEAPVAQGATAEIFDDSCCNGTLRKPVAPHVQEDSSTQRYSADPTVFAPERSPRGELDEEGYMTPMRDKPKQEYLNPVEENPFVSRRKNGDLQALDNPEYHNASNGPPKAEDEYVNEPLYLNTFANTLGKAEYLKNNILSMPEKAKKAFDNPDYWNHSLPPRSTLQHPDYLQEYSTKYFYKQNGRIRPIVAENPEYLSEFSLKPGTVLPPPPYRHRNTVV
Excerpt: as §1

Another test deals with S6K1 (Homo sapiens, UniProt P23443). Put plainly: Kinase profiling S6K1. Conditions: read-out: residual kinase activity, S6K1. In kind it is biochemical.
Sequence of S6K1 (P23443 whole entry, species assumed): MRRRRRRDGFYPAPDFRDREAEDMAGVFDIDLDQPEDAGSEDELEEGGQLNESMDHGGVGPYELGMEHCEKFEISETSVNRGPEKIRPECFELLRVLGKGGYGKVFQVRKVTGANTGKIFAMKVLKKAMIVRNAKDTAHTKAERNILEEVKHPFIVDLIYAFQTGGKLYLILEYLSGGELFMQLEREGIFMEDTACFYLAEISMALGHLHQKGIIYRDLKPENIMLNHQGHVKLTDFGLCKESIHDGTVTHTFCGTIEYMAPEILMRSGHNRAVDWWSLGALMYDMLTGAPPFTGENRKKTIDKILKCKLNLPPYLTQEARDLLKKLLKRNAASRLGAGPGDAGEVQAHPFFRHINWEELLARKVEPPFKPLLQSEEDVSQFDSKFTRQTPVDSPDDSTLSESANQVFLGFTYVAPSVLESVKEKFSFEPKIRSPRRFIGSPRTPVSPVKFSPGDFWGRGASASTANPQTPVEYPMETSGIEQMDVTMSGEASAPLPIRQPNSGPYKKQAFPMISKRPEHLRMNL
Excerpt: as §1

The target of a further test is PRK2 (Homo sapiens, UniProt Q16513). Put plainly: Kinase profiling PRK2. It is filed as biochemical. The following applies: read-out: residual kinase activity, PRK2.
Excerpt: as §1

In another test the target is PKBa (Homo sapiens, UniProt P31749). Put plainly: Kinase profiling PKBa. In kind it is biochemical. Conditions: read-out: residual kinase activity, PKBa.
Excerpt: as §1

In another test the target is PLK1 (Homo sapiens, UniProt P53350). Put plainly: Kinase profiling PLK1. In kind it is biochemical. Conditions: read-out: residual kinase activity, PLK1.
Excerpt: as §1

The target of the next test is RIPK2 (Homo sapiens, UniProt O43353). Put plainly: Kinase profiling RIPK2. It is filed as biochemical. Conditions: read-out: residual kinase activity, RIPK2.
Excerpt: as §1

In a further test the target is MELK (Homo sapiens, UniProt Q14680). Briefly: Kinase profiling MELK. Conditions: read-out: residual kinase activity, MELK. It is filed as biochemical.
Sequence of MELK (Q14680 whole entry, species assumed): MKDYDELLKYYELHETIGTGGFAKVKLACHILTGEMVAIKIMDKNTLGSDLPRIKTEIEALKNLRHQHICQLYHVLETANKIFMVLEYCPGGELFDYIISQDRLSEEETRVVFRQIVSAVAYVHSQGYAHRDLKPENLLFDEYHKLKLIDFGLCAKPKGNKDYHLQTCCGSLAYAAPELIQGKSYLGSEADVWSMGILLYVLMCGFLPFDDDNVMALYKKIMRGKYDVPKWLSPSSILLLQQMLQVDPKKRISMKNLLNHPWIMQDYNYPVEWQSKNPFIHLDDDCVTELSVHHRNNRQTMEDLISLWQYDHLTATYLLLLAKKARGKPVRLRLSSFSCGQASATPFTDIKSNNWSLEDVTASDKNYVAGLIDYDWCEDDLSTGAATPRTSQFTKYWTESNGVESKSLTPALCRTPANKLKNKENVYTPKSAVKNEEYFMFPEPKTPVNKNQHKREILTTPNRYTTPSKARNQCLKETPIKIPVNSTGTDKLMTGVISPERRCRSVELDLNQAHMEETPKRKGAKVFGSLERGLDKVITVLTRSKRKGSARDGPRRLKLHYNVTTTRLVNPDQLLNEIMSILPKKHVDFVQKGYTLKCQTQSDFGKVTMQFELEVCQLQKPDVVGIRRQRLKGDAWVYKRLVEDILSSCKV
Excerpt: as §1

The target in another test is BTK (Homo sapiens, UniProt Q06187). Put plainly: Kinase profiling BTK. In kind it is biochemical. The following applies: read-out: residual kinase activity, BTK.
Excerpt: as §1

Another test deals with p38b MAPK (Homo sapiens, UniProt Q15759). Briefly: Kinase profiling p38b MAPK. In kind it is biochemical. The following applies: read-out: residual kinase activity, p38b MAPK.
Excerpt: as §1

A further test concerns the target MKK2 (Homo sapiens, UniProt P36507). Put plainly: Kinase profiling MKK2. In kind it is biochemical. The following applies: read-out: residual kinase activity, MKK2.
Excerpt: as §1

The next test concerns the target PKCa (Homo sapiens, UniProt P17252). Briefly: Kinase profiling PKCa. In kind it is biochemical. Conditions: read-out: residual kinase activity, PKCa.
Excerpt: as §1

Another test has as its target IGF-1R (Homo sapiens, UniProt P08069). Briefly: Kinase profiling IGF-1R. It is filed as biochemical. Conditions: read-out: residual kinase activity, IGF-1R.
Excerpt: as §1

A further test has as its target PKA (Homo sapiens, UniProt P17612). Put plainly: Kinase profiling PKA. It is filed as biochemical. Conditions: read-out: residual kinase activity, PKA.
Excerpt: as §1

The next test deals with T1, PDK1 (Homo sapiens, UniProt O15530).
T1 sequence (O15530 1-556): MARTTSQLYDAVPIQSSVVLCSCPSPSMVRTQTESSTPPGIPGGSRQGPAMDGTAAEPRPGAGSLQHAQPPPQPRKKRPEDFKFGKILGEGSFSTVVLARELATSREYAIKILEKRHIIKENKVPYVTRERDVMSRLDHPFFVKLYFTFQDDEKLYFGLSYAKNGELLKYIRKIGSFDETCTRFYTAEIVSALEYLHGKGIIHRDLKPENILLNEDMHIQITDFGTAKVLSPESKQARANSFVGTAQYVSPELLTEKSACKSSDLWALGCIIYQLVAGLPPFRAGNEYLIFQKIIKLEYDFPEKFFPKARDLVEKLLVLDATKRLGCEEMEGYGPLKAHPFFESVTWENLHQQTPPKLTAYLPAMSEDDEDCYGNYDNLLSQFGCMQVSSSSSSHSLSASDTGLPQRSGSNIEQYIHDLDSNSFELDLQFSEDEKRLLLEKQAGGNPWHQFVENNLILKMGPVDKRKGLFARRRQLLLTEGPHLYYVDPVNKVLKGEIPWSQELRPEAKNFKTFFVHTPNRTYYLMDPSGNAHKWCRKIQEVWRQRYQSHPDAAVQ
Briefly: Kinase profiling PDK1. It is filed as biochemical. The following applies: read-out: residual kinase activity, PDK1.
Excerpt: as §1

For a further test, the target named is ROCK 2 (Homo sapiens, UniProt O75116). Put plainly: Kinase profiling ROCK 2. Conditions: read-out: residual kinase activity, ROCK 2. In kind it is biochemical.
Excerpt: as §1

The target of another test is EPH-A2 (Homo sapiens, UniProt P29317). Put plainly: Kinase profiling EPH-A2. It is filed as biochemical. The following applies: read-out: residual kinase activity, EPH-A2.
Excerpt: as §1

For a further test, the target named is CAMKKb (Homo sapiens, UniProt Q96RR4). Briefly: Kinase profiling CAMKKb. It is filed as biochemical. The following applies: read-out: residual kinase activity, CAMKKb.
Excerpt: as §1

Another test deals with PIM1 (Homo sapiens, UniProt P11309). Briefly: Kinase profiling PIM1. In kind it is biochemical. The following applies: read-out: residual kinase activity, PIM1.
Excerpt: as §1

The target in a further test is T2, MKK6 (Homo sapiens, UniProt P52564).
T2 sequence (P52564 1-334): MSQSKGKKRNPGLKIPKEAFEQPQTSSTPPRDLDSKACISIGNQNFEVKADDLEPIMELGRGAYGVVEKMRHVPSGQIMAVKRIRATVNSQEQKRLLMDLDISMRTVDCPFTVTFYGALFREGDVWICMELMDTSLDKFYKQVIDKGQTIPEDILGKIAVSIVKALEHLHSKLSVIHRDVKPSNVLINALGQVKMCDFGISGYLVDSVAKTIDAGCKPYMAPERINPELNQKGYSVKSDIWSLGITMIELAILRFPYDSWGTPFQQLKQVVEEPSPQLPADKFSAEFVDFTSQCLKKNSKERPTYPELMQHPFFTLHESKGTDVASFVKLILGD
Put plainly: Kinase profiling MKK6. The following applies: read-out: residual kinase activity, MKK6. In kind it is biochemical.
Excerpt: as §1

In the next test the test system is AMPK (hum). Put plainly: Kinase profiling AMPK (hum). In kind it is biochemical, human. The following applies: 100 micromolar inhibitor concentration; 100 is no change.
Excerpt: as §1

[1] abbreviates: 100 micromolar inhibitor concentration, 100 is no change.

Consider four compounds from patent US10231954B2, “Neurodegenerative therapies” (LYTIX BIOPHARMA AS, priority 2014, dated 2019).

SMILES strings stand for the structures. Like-named read-outs stand apart in the source and are kept apart here.

Sequence of IGF-1R (P08069 31-1367, species assumed): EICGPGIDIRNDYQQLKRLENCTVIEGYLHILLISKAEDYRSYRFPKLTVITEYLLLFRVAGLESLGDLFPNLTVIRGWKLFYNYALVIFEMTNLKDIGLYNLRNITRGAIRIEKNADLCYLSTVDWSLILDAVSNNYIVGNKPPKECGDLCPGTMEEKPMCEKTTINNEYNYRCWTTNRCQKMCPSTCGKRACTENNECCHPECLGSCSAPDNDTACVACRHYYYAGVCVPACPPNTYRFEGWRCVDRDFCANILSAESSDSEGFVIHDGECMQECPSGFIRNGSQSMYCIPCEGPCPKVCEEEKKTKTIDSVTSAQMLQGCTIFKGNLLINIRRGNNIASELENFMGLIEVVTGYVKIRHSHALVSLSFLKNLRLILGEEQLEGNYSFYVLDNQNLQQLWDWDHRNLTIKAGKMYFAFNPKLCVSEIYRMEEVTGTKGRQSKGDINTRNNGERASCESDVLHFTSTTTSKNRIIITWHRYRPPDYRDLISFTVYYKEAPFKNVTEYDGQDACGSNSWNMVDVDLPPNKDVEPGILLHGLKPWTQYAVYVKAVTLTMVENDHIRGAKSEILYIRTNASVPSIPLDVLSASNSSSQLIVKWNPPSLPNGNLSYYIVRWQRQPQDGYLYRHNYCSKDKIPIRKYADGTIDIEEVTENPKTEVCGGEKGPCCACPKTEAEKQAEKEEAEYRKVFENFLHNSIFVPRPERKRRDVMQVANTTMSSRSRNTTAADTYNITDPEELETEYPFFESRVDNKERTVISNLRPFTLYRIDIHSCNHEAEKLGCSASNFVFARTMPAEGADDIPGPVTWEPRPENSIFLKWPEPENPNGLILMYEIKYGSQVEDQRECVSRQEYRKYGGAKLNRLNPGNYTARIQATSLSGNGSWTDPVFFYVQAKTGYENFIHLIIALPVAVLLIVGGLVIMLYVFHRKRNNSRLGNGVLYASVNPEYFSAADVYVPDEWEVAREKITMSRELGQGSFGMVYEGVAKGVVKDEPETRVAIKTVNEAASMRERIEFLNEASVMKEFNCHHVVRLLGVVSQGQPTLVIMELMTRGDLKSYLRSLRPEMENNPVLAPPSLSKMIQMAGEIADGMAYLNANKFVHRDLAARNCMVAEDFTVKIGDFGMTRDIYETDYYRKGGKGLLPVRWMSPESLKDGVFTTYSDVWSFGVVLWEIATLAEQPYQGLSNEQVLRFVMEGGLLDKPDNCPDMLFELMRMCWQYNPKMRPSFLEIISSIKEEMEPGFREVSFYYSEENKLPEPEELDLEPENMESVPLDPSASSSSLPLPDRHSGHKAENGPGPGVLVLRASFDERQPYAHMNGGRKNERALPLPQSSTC
Sequence of JNK1 (P45983 whole entry, species assumed): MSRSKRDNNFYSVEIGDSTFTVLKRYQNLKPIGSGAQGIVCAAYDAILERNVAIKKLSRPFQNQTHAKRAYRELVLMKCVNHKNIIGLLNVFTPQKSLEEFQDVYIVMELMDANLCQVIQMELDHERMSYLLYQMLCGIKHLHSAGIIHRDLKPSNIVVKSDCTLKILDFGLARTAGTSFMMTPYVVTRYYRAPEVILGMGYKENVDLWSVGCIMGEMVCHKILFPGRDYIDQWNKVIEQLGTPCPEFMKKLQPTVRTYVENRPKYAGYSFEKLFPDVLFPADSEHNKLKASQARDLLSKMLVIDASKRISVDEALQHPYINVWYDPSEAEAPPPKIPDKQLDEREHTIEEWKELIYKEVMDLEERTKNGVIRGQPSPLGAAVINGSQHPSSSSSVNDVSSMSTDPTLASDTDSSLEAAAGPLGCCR

On to `CC(=O)Nc1nc2cc(O)ccc2s1` [Compound 01-66, N-(5-hydroxybenzo[d]thiazol-2-yl)acetamide], for which the remaining activity at 100 µM on RSK1 is 44%; on JNK1 it was 53%; at HER4, 40%; at S6K1, 54%; on PRK2 it was 67%; on PKBa, 87%. The remaining activity at 100 µM worked out at 103% on PLK1; 29% on RIPK2; 17% at MELK; 67% at BTK; 92% at p38b MAPK; 42% at MKK2. Further, the remaining activity at 100 µM on PKCa is 82%; at IGF-1R it was 26%; at PKA it was 95%; at PDK1, 69%; on ROCK 2, 56%; on EPH-A2 it was 67%. Moreover, the figures for the remaining activity at 100 µM on CAMKKb, at PIM1 and at MKK6 were 44%, 12% and 70%, respectively.
On to `CC(=O)Nc1nc2ccc(O)cc2s1` [Compound 01-71], for which the remaining activity at 100 µM is 25% on RSK1 (setting [1]); 72% on JNK1 (setting [1]); 36% at HER4 (setting [1]); 23% on S6K1 (setting [1]); 36% at PRK2 (setting [1]); 87% on PKBa. The remaining activity at 100 µM at PLK1 (setting [1]) worked out at 97%; on RIPK2 (setting [1]) it was 22%; at MELK (setting [1]), 24%; on BTK (setting [1]), 69%; on p38b MAPK (setting [1]), 106%; on MKK2 (setting [1]), 48%. The remaining activity at 100 µM worked out at 77% on PKCa (setting [1]); 18% at IGF-1R (setting [1]); 70% on PKA (setting [1]); 63% at PDK1 (setting [1]); 34% on ROCK 2 (setting [1]); 66% on EPH-A2 (setting [1]). For the same compound, the figures for the remaining activity at 100 µM on CAMKKb (setting [1]), at PIM1 (setting [1]) and at MKK6 (setting [1]) were 57%, 19% and 78%, respectively.
Consider `CC(=O)Nc1nc2ccc(C(F)(F)F)cc2s1` [Compound 01-90], for which the remaining activity at 100 µM was determined as 74% on RSK1 (setting [1]); 104% on JNK1 (setting [1]); 97% on HER4 (setting [1]); 85% on S6K1 (setting [1]); 94% on PRK2 (setting [1]); 104% at PKBa. Further, the remaining activity at 100 µM was found to be 80% at PLK1 (setting [1]); 23% on RIPK2 (setting [1]); 49% on MELK (setting [1]); 73% on BTK (setting [1]); 82% at p38b MAPK (setting [1]); 73% on MKK2 (setting [1]). Also, the remaining activity at 100 µM on PKCa (setting [1]) was found to be 101%; on IGF-1R (setting [1]), 84%; at PKA (setting [1]), 87%; on PDK1 (setting [1]), 93%; at ROCK 2 (setting [1]), 80%; at EPH-A2 (setting [1]), 67%. Further, the remaining activity at 100 µM at CAMKKb (setting [1]) stood at 29%; at PIM1 (setting [1]), 71%; at MKK6 (setting [1]), 85%. Further, the “residual kinase activity, AMPK (hum)” value with AMPK (hum) is 74.
Turning to `CC(=O)Nc1nc2ccc(C#N)cc2s1` [Compound 01-94], the remaining activity at 100 µM at RSK1 (setting [1]) is 51%; on JNK1 (setting [1]), 90%; on HER4 (setting [1]) it was 90%; at S6K1 (setting [1]) it was 73%; at PRK2 (setting [1]), 70%; on PKBa, 95%. Further, the remaining activity at 100 µM at PLK1 (setting [1]) is 108%; at RIPK2 (setting [1]), 17%; on MELK (setting [1]) it was 34%; at BTK (setting [1]), 98%; at p38b MAPK (setting [1]), 100%; at MKK2 (setting [1]), 54%. Moreover, the remaining activity at 100 µM on PKCa (setting [1]) was found to be 93%; at IGF-1R (setting [1]), 78%; on PKA (setting [1]), 93%; on PDK1 (setting [1]), 97%; at ROCK 2 (setting [1]) it was 69%; on EPH-A2 (setting [1]), 73%. Besides, the remaining activity at 100 µM amounted to 35% at CAMKKb (setting [1]), 26% at PIM1 (setting [1]) and 98% on MKK6 (setting [1]). In addition, the “residual kinase activity, AMPK (hum)” value in the test on AMPK (hum) is on record as 40.
